# According to US10392383B2, “3-(1H-benzo[d]imidazol-2-yl)-1H-pyrazolo[4,3-b]pyridines and therapeutic uses thereof” (Samumed, LLC, priority 2015, dated 2019):
# pEC50: −log10 of the molar value.
# Experiments:
# SW480 colon cancer cells = experiment: Cell viability assay (CellTiter-Blue) in SW480 cells; format: cell-based; conditions: Homo sapiens, 96 h, four days; for pEC50: CellTiter-Blue, 10 μM to 0.0045 μM; for inhibition at 10 µM: read-out: percent inhibition at 10 μM (given for EC50 of >10 μM)
# Method: Representative compounds were screened using the following assay procedure to assess the effect on cell viability as described below.
# Each compound was dissolved in DMSO as a 10 mM stock and used to prepare compound source plates. Serial dilution (1:3, 8-point dose-response curves from 10 μM to 0.0045 μM) and compound transfer was performed using the ECHO 550 (Labcyte, Sunnyvale, Calif.) into 96-well clear bottom, black-walled plates (Corning-Costar).
# Approximately 2×10^3 SW480 colon cancer cells were seeded into each well and allowed to incubate in the presence or absence of compound for four days at 37° C./5% CO2. Eight replicates of DMSO-treated cells served as controls and cells treated with compound were performed in duplicate.
# After incubation, 20 μL of CellTiter-Blue (Promega) was added to each well allowed to incubate for approximately 3 hours. This reagent was a buffered solution which contains resazurin, metabolically active cells were able to reduce rezarurin (blue) into resorufin (pink) which was highly fluorescent. This measured fluorescence was used as a readout for cell viability.
# After incubation, the plates were read at Ex 560 nm Em 590 nm (Cytation 3, BioTek). Dose-response curves were generated and EC50 concentration values were calculated using non-linear regression curve fit in the GraphPad Prism (San Diego, Calif.) or Dotmatics' Studies Software (Bishops Stortford, UK). For EC50 of >10 μM, the percent inhibition at 10 μM is provided.
# [1] = system: primary human fibroblasts derived from IPF patients (LL29 cells) treated with TGF-β1; experiment: Inhibition of the fibrotic process: αSMA staining in TGF-β1-treated LL29 fibroblasts; format: cell-based; conditions: Fibroblast; for pEC50: 96 h, LL29 fibroblasts treated with TGF-β1 (20 ng/mL), 4 days, Table 4; for inhibition at 10 µM: LL29 fibroblasts treated with TGF-β1, Table 4, read-out: percent inhibition at 10 μM (given in parentheses for EC50 >10 μM)
# From the text: Representative compounds were screened using primary human fibroblasts (derived from IPF patients) treated with TGF-β1 to determine their ability to inhibit the fibrotic process.
# Human Fibroblast Cell Culture: Primary human fibroblasts derived from IPF patients (LL29 cells) [^1Xiaoqiu Liu, et. al., “Fibrotic Lung Fibroblasts Show Blunted Inhibition by cAMP Due to Deficient cAMP Response Element-Binding Protein Phosphorylation”, Journal of Pharmacology and Experimental Therapeutics (2005), 315(2), 678-687; ^2Watts, K. L., et. al., “RhoA signaling modulates cyclin D1 expression in human lung fibroblasts; implications for idiopathic pulmonary fibrosis”, Respiratory Research (2006), 7(1), 88] were obtained from American Type Culture Collection (ATCC) and expanded in F12 medium supplemented with 15% Fetal Bovine Serum and Penicillin/Streptomycin.
# Compound Screening: Each compound was dissolved in DMSO as a 10 mM stock and used to prepare compound source plates. Serial dilution (1:2, 11-point dose-response curves from 10 μM to […]) and compound transfer was performed using the ECHO 550 (Labcyte, Sunnyvale, Calif.) into 384-well clear bottom assay plates (Greiner Bio-One) with appropriate DMSO backfill for a final DMSO concentration of 0.1%. LL29 cells are plated at 1,500 cells/well in 80 μL/well F12 medium supplemented with 1% Fetal Bovine Serum. One hour after addition of the cells, TGF-β1 (Peprotech; 20 ng/mL) was added to the plates to induce fibrosis (ref. 1 and 2 above). Wells treated with TGF-β1 and containing DMSO were used as controls. Cells were incubated at 37° C. and 5% CO2 for 4 days. Following incubation for 4 days, SYTOX green nucleic acid stain (Life Technologies [Thermo Fisher Scientific]) was added to the wells at a final concentration of 1 μM and incubated at room temperature for 30 min. Cells were then fixed using 4% formaldehyde (Electron Microscopy Sciences), washed 3 times with PBS followed by blocking and permeabilization using 3% Bovine Serum Albumin (BSA; Sigma) and 0.3% Triton X-100 (Sigma) in PBS. Cells were then stained with antibody specific to α-smooth muscle actin (αSMA; Abcam) (ref. 1 and 2 above) in 3% Bovine Serum Albumin (BSA; Sigma) and 0.3% Triton X-100 (Sigma) in PBS, and incubated overnight at 4° C. Cells were then washed 3 times with PBS, followed by incubation with Alexa Flor-647 conjugated secondary antibody (Life Technologies [Thermo Fisher Scientific]) and DAPI at room temperature for 1 hour. Cells were then washed 3 times with PBS and plates were sealed for imaging. αSMA staining was imaged by excitation at 630 nm and emission at 665 nm and quantified using the Compartmental Analysis program on the CellInsight CX5 (Thermo Scientific). Dead or apoptotic cells were excluded from analysis based on positive SYTOX green staining. % of total cells positive for αSMA were counted in each well and normalized to the average of 11 wells treated with TGF-β1 on the same plate using Dotmatics' Studies Software. The normalized averages (fold change over untreated) of 3 replicate wells for each compound concentration were used to create dose-responses curves and EC50 values were calculated using non-linear regression curve fit in the Dotmatics' Studies Software. For EC50 of >10 μM, the percent inhibition at 10 μM is provided.
Compound,pEC50 (SW480 colon cancer cells),pEC50 [1],inhibition at 10 µM (SW480 colon cancer cells),inhibition at 10 µM [1]
"Fc1ccccc1-c1cccc2[nH]c(-c3n[nH]c4ccc(-c5cncc(CNCC6CCCC6)c5)nc34)nc12 [Compound 81, 1-Cyclopentyl-N-((5-(3-(4-(2-fluorophenyl)-1H-benzo[d]imidazol-2-yl)-1H-pyrazolo[4,3-b]pyridin-5-yl)pyridin-3-yl)methyl)methanamine]",5.94,6.20,–,–
"COc1cccc(-c2cccc3[nH]c(-c4n[nH]c5ccc(-c6cncc(OC7CCNCC7)c6)nc45)nc23)c1 [Compound 1025, 3-(4-(3-Methoxyphenyl)-1H-benzo[d]imidazol-2-yl)-5-(5-(piperidin-4-yloxy)pyridin-3-yl)-1H-pyrazolo[4,3-b]pyridine]",5.24,5.68,–,–
"O=C(Nc1cncc(-c2ccc3[nH]nc(-c4nc5c(-c6ccccn6)cccc5[nH]4)c3n2)c1)c1ccccc1 [Compound 151, N-(5-(3-(4-(Pyridin-2-yl)-1H-benzo[d]imidazol-2-yl)-1H-pyrazolo[4,3-b]pyridin-5-yl)pyridin-3-yl)benzamide]",< 5.00,5.29,20.8%,–
"Cc1ccc(-c2cccc3[nH]c(-c4n[nH]c5ccc(-c6cncc(NC(=O)C7CCCC7)c6)nc45)nc23)s1 [Compound 414, N-(5-(3-(4-(5-Methylthiophen-2-yl)-1H-benzo[d]imidazol-2-yl)-1H-pyrazolo [4,3-b]pyridin-5-yl)pyridin-3-yl)cyclopentanecarboxamide]",< 5.00,< 5.00,0%,42.2%
"COc1cccc(-c2cccc3[nH]c(-c4n[nH]c5ccc(-c6cncc(NC(=O)Cc7ccccc7)c6)nc45)nc23)c1 [Compound 1000, N-(5-(3-(4-(3-Methoxyphenyl)-1H-benzo[d]imidazol-2-yl)-1H-pyrazolo[4,3-b]pyridin-5-yl)pyridin-3-yl)-2-phenylacetamide]",5.38,5.64,–,–
"CN(C)CCOc1cncc(-c2ccc3[nH]nc(-c4nc5c(-c6cccs6)cccc5[nH]4)c3n2)c1 [Compound 707, N,N-Dimethyl-2-((5-(3-(4-(thiophen-2-yl)-1H-benzo[d]imidazol-2-yl)-1H-pyrazolo[4,3-b]pyridin-5-yl)pyridin-3-yl)oxy)ethan-1-amine]",5.81,5.87,–,–
"Fc1cccc(-c2cccc3[nH]c(-c4n[nH]c5ccc(-c6cncc(CN7CCC(F)(F)C7)c6)nc45)nc23)c1 [Compound 26, 5-(5-((3,3-Difluoropyrrolidin-1-yl)methyl)pyridin-3-yl)-3-(4-(3-fluorophenyl)-1H-benzo[d]imidazol-2-yl)-1H-pyrazolo[4,3-b]pyridine]",5.23,5.78,–,–
"CC(C)(C)C(=O)Nc1cncc(-c2ccc3[nH]nc(-c4nc5c(-c6ccc(F)cc6)cccc5[nH]4)c3n2)c1 [Compound 36, N-(5-(3-(4-(4-Fluorophenyl)-1H-benzo[d]imidazol-2-yl)-1H-pyrazolo[4,3-b]pyridin-5-yl)pyridin-3-yl)pivalamide]",5.07,< 5.00,–,33.6%
"O=C(CC1CCNCC1)Nc1cncc(-c2ccc3[nH]nc(-c4nc5c(-c6ccsc6)cccc5[nH]4)c3n2)c1 [Compound 673, 2-(Piperidin-4-yl)-N-(5-(3-(4-(thiophen-3-yl)-1H-benzo[d]imidazol-2-yl)-1H-pyrazolo[4,3-b]pyridin-5-yl)pyridin-3-yl)acetamide]",< 5.00,5.56,4.3%,–
"Fc1cccc(-c2cccc3[nH]c(-c4n[nH]c5ccc(-c6cn[nH]c6)nc45)nc23)c1 [Compound 507, 3-(4-(3-Fluorophenyl)-1H-benzo[d]imidazol-2-yl)-5-(1H-pyrazol-4-yl)-1H-pyrazolo[4,3-b]pyridine]",6.01,5.53,–,–
"Nc1cncc(-c2ccc3[nH]nc(-c4nc5c(-c6ccccc6F)cccc5[nH]4)c3n2)c1 [Compound 59, 5-(3-(4-(2-Fluorophenyl)-1H-benzo[d]imidazol-2-yl)-1H-pyrazolo[4,3-b]pyridin-5-yl)pyridin-3-amine]",5.79,5.86,–,–
"O=C(Nc1cncc(-c2ccc3[nH]nc(-c4nc5c(-c6ccccc6F)cccc5[nH]4)c3n2)c1)C1CCCC1 [Compound 78, N-(5-(3-(4-(2-Fluorophenyl)-1H-benzo[d]imidazol-2-yl)-1H-pyrazolo[4,3-b]pyridin-5-yl)pyridin-3-yl)cyclopentanecarboxamide]",< 5.00,5.60,20%,–

# Now from value to compound, other results behind:
pEC50 (SW480 colon cancer cells),Compound,pEC50 [1],inhibition at 10 µM (SW480 colon cancer cells),inhibition at 10 µM [1]
< 5.00,"Cn1cc(-c2ccc3[nH]nc(-c4nc5c(N6CCCCC6)cccc5[nH]4)c3n2)c(CO)n1 [Compound 1134, (1-Methyl-4-(3-(4-(piperidin-1-yl)-1H-benzo[d]imidazol-2-yl)-1H-pyrazolo [4,3-b]pyridin-5-yl)-1H-pyrazol-3-yl)methanol]",< 5.00,18.2%,0%
5.04,"CN1CCN(c2cccc3[nH]c(-c4n[nH]c5ccc(-c6cnccn6)nc45)nc23)CC1 [Compound 648, 3-(4-(4-Methylpiperazin-1-yl)-1H-benzo[d]imidazol-2-yl)-5-(pyrazin-2-yl)-1H-pyrazolo[4,3-b]pyridine]",< 5.00,–,0%
5.81,"CCNCc1cncc(-c2ccc3[nH]nc(-c4nc5c(-c6ccccn6)cccc5[nH]4)c3n2)c1 [Compound 146, N-((5-(3-(4-(Pyridin-2-yl)-1H-benzo[d]imidazol-2-yl)-1H-pyrazolo[4,3-b]pyridin-5-yl)pyridin-3-yl)methyl)ethanamine]",5.43,–,–
< 5.00,"Oc1cncc(-c2ccc3[nH]nc(-c4nc5ccccc5[nH]4)c3n2)c1 [Compound 661, 5-(3-(1H-Benzo[d]imidazol-2-yl)-1H-pyrazolo[4,3-b]pyridin-5-yl)pyridin-3-ol]",< 5.00,29.2%,30.3%
< 5.00,"CN1CCN(c2cccc3[nH]c(-c4n[nH]c5ccc(-c6cncnc6)nc45)nc23)CC1 [Compound 251, 3-(4-(4-Methylpiperazin-1-yl)-1H-benzo[d]imidazol-2-yl)-5-(pyrimidin-5-yl)-1H-pyrazolo[4,3-b]pyridine]",5.62,0%,–
5.23,"COc1cccc(-c2cccc3[nH]c(-c4n[nH]c5ccc(-c6cccnc6)nc45)nc23)c1 [Compound 994, 3-(4-(3-Methoxyphenyl)-1H-benzo[d]imidazol-2-yl)-5-(pyridin-3-yl)-1H-pyrazolo[4,3-b]pyridine]",5.98,–,–
5.41,"c1cc(-c2ccoc2)c2nc(-c3n[nH]c4ccc(-c5cncc(OCCN6CCCC6)c5)nc34)[nH]c2c1 [Compound 690, 3-(4-(Furan-3-yl)-1H-benzo[d]imidazol-2-yl)-5-(5-(2-(pyrrolidin-1-yl)ethoxy)pyridin-3-yl)-1H-pyrazolo[4,3-b]pyridine]",5.61,–,–
